# Experimental data taken from paper PMC6930570, “2-Arylidene-1-indandiones as Pleiotropic Agents with Antioxidant and Inhibitory Enzymes Activities” (Molecules, 2019).
# Columns and labels:
# [1] = Reducing activity of the stable radical DPPH; format: biochemical
# Protocol: The novel derivatives were studied for their interaction with the sTable 2,2-diphenyl-1-picrylhydrazyl free radical (DPPH)at concentration 50 µM, 100 µM and 200 µM after 20 and 60 min (Table 2). In this assay the DPPH radical is reduced transferring one electron from the antioxidant. Phenolic compounds such as catechol and derivatives generate phenoxide anions with strong antioxidant capacity. Nordihydroguaretic acid (NDGA), the reference compound acts by this mechanism. Compound 10 presents the highest scavenging activity at 100 µM after 20 min correlated with the presence of the phenolic OH. Compounds 3, 4, 5, 7 presented medium activities depending from time and concentration. The presence of the heteroatom O or S seems to influence the activity e.g., derivatives 1, 2, and 3. Replacement of phenyl ring (4) by a thienyl group (1) decreases antioxidant behavior. […] On the contrary the presence of the furyl ring (3) enhances reduction. Additionally, the presence of a π-dimethyl-amino group 6 reduces the scavenging ability whereas its absence in (5), increases the activity. The presence of two conjugated double bonds (5) leads to lower activity compared to the simpler compound 4. Compounds 9 and 10 present the highest milogP values (5.94). Both include a phenolic hydrogen in their structure. […] On the contrary in compound 9 steric reasons are possible to lead to a decrease. Lipophilicity seems to influence the interaction of compound 10.
# To a solution of DPPH in absolute ethanol an equal volume of the compounds with final concentrations of 50, 100 and 200 µM from a stock solution of 10 mM (in 1% DMSO and ethanol) was added. After 20 and 60 min the absorbance was recorded at 517 nm at room temperature (Table 2).
# [2] = Inhibition of linoleic acid peroxidation induced by AAPH; format: biochemical; conditions: no = no action under the experimental conditions
# Text: In the water soluble 2,2′-azobis(2-amidinopropane) hydrochloride (AAPH) the free radicals are produced in vitro through spontaneous thermal decomposition resembling to lipid peroxidation in cells due to the action of the peroxyl radicals. […] Compounds 11, 5, 4 and 3 presented no activity under the experimental conditions. From the experimental results it can be concluded that the 3,5-di-tert-butyl-group offers protection against lipid peroxidation. Electronic parameters expressed by the highest occupied molecular orbital (HOMO) describes better the biological activity (Equation (2)). log AAPH % = −22.042(± 8.731) HOMO − 4.853 (2.622)(2) n = 8, r = 0.930, r^2 = 0.864, q^2 = 0.567, s = 0.146, F1,8 = 5.783, α = 0.1
# The oxidation reaction was started with 2,2′-Azobis(2-amidinopropane) dihydrochloride (AAPH) as a free radical initiator. Linoleic acid sodium salt was oxidized at 234 nm to a conjugated diene hydroperoxide resulting an increased absorption. Trolox was used as reference compound (93%) (Table 3).
# [3] = ABTS+. decolorization assay; format: biochemical; conditions: 1 min, no = no action under the experimental conditions
# Text: The radical cation ABTS^+• is directly generated through potassium persulfate by oxidation with no participation of an intermediary radical and then the reduction is followed by adding electron-donating antioxidants. In this assay the radical is generated before adding the antioxidant (decolorization assay). […] It seems that lipophilicity influences the activity, since both are presenting high lipophilicity values. […] The radical cation ABTS^+• was generated from an ABTS stock solution in water (7 mM) which was mixed with potassium persulfate (2.45 mM) and left in the dark at room temperature for 12–16 h before use. The results are recorded after 1min of the mixing solutions at 734 nm and compared to the appropriate standard inhibitor Trolox (Table 3).
# bovine thrombin = target: T1, bovine thrombin (Bos taurus, UniProt P00735); experiment: In vitro inhibition of thrombin; format: biochemical; conditions: substrate tosyl-Gly-Pro-Arg-pNA, no = no action under the experimental conditions; for inhibition at 100 µM: read-out: TH% 100 µM (thrombin inhibition)
# T1 construct: purchased Sigma Chemical, Co. (St. Louis)
# Protocol: It is well known that indandione derivatives exert their anticoagulant activity indirectly by inhibiting prothrombin synthesis in the liver. […] Derivatives 1, 2, 5, 8, 9, 10, and 12 were tested in vitro as possible thrombin inhibitors. Among the tested derivatives compound 8 presented 100% inhibition followed by compounds […] and 10.
# As a substrate tosyl-Gly-Pro-Arg-pNA acetate salt was used at 1 mM final concentration. Compounds were dissolved at a final concentration of […] in a Tris-buffer (0.05 M Tris, 0.154 M NaCl, ethanol 5%, pH = 8.0). Three minutes after the addition of bovine thrombin (2.5 unit/mg), the reaction was ended by adding 1 mL acetic acid 50%. The absorption of the released p-nitro-aniline was measured at 405 nm (Table 3). Warfarin and Inogatran were used as reference compounds.
# [4] = tested on: carrageenin-induced rat paw edema; experiment: Inhibition of the carrageenin-induced rat paw edema (CPE); format: in vivo, Fisher 344 rats; conditions: 0.01 mmol/kg body weight, intraperitoneally, 3.5 h after carrageenin; for inhibition in vivo at 10 µmol/kg: Rattus norvegicus, ip, read-out: CPE % (reduction of the rat paw edema)
# Text: Carrageenin-induced rat paw edema (CPE) model was used to study the in vivo anti-inflammatory activity of the tested derivatives and the results are presented in Table 3. […] Compounds 2, 7, 8, 10, and 12 presented small differences in their biological activity. The presence of the thienyl group as well as of the furyl leads to higher anti-inflammatory activity (1 and 3) while substitution with a phenyl group leads to two-fold decrease of the activity (28%).
# Edema was induced in the right hind paw of Fisher 344 rats (150–200 g) by the intradermal injection of 0.1 mL 2% carrageenin in water. Both sexes were used while females pregnant were excluded. Each group was composed of 6–15 animals. The animals, which have been bred in our laboratory, were housed under standard conditions and received a diet of commercial food pellets and water ad libitum during the maintenance but they were entirely fasted during the experiment period. Our studies were in accordance with recognised guidelines on animal experimentation. (guidelines for the care and use of laboratory animals published by the Greek Government 160/1991, based on EU regulations 86/609). Rats were kept in the Centre of the School of Veterinary Medicine (EL54 BIO42), Aristotle University of Thessaloniki, which is registered by the official state veterinary authorities (presidential degree 56/2013, in harmonization with the European Directive 2010/63/EEC). The experimental protocols were approved by the Animal Ethics Committee of the Prefecture of Central Macedonia (no. 270079/2500). The tested compounds 0.01 mmol/kg body weight were suspended in water, with a few drops of Tween 80 and ground in a mortar before use and were given intraperitoneally simultaneously with the carrageenin injection. The rats were euthanized 3.5 h after carrageenin injection. The difference between the weight of the injected and uninjected paws was calculated for each animal. The change in paw weight was compared with that in control animals (treated with water) and expressed as a percent inhibition of the edema CPE % values […] [58, 59]. Indomethacin in 0.01 mmol/kg (47%). Values CPE % are the mean from two different experiments with a standard error of the mean less than 10% (Table 3).
SMILES,RA% 50 µM 20 min [1] [%],RA% 50 µM 60 min [1] [%],RA% 100 µM 20 min [1] [%],RA% 100 µM 60 min [1] [%],RA% 200 µM 20 min [1] [%],RA% 200 µM 60 min [1] [%],AAPH% 100 µM (anti-lipid peroxidation) [2],ABTS+. % 100 µM (decolorization activity) [3],inhibition at 100 µM (bovine thrombin) [%],CPE % (reduction of the rat paw edema) [4] [%],inhibition in vivo at 10 µmol/kg [4] [%],TH% 100 µM (thrombin inhibition) (bovine thrombin)
"O=C1C(=Cc2ccc(OCc3ccc(Br)cc3)cc2)C(=O)c2ccccc21 [Compound 8, (Z)-2-(4-((4-bromobenzyl)oxy)benzylidene)-1H-indene-1,3(2H)-dione]",4,5,7,7,0,0,79%,16%,100,46,46,
"CC(C)(C)c1cc(C=C2C(=O)c3ccccc3C2=O)c(O)c(C(C)(C)C)c1 [Compound 9, (Z)-2-(3,5-di-tert-butyl-2-hydroxybenzylidene)-1H-indene-1,3(2H)-dione]",4,3,3,1,6,6,96%,no,0,,,
"O=C1C(=Cc2c[nH]c3ccccc23)C(=O)c2ccccc21 [Compound 12, (Z)-2-((1H-indol-3-yl)methylene)-1H-indene-1,3(2H)-dione]",3,3,17,17,4,6,31%,no,,,42,
"CC(C)(C)c1cc(C=C2C(=O)c3ccccc3C2=O)cc(C(C)(C)C)c1O [Compound 10, (Z)-2-(3,5-di-tert-butyl-4-hydroxybenzylidene)-1H-indene-1,3(2H)-dione]",13,17,100,85,71,71,85%,39%,27,,42,
"Cc1ccsc1C=C1C(=O)c2ccccc2C1=O [Compound 2, (Z)-2-((3-methylthiophen-2-yl)methylene)-1H-indene-1,3(2H)-dione]",2,2,16,16,4,7,92%,2%,,,45,
"CN(C)c1ccc(/C=C\C=C2C(=O)c3ccccc3C2=O)cc1 [Compound 6, (Z)-2-(3-(4-(dimethylamino)phenyl)allylidene)-1H-indene-1,3(2H)-dione]",6,6,22,23,15,18,9%,22%,19,,,
"Cc1ccc(C=C2C(=O)c3ccccc3C2=O)o1 [Compound 3, (Z)-2-((5-methylfuran-2-yl)methylene)-1H-indene-1,3(2H)-dione]",20,23,37,40,61,75,no activity and no,20%,39,,50,
"O=C1C(=Cc2cccc(Oc3ccccc3)c2)C(=O)c2ccccc21 [Compound 7, (Z)-2-(3-phenoxybenzylidene)-1H-indene-1,3(2H)-dione]",27,35,40,50,75,85,82%,37%,,41,41,no
